Our source for the EC50 and IC50 values is patent publication US20120329711A1, “GLP-1 RECEPTOR AGONIST COMPOUNDS WITH A MODIFIED N-TERMINUS” (Nordisk A/S, priority 2009, published 2012).

The target in test [1] is T1, human GLP-1 receptor (Homo sapiens, UniProt P43220). Put plainly: In vitro potency: stimulation of cAMP formation in membranes expressing the human GLP-1 receptor (AlphaScreen cAMP Assay). It counts as biochemical. Also noted: expressed in transfected cells; membranes. As to conditions: purified plasma membranes from BHK467-12A (tk-ts13) expressing the human GLP-1 receptor. On the procedure:
Purified plasma membranes from a stable transfected cell line, BHK467-12A (tk-ts13), expressing the human GLP-1 receptor were stimulated with the GLP-1 receptor agonist derivative in question, and the potency of cAMP production was measured using the AlphaScreen™ cAMP Assay Kit from Perkin Elmer Life Sciences. The basic principle of The AlphaScreen Assay is a competition between endogenous cAMP and exogenously added biotin-cAMP. The capture of cAMP is achieved by using a specific antibody conjugated to acceptor beads.
A stable transfected cell line and a high expressing clone were selected for screening. The cells were grown at 5% CO2 in DMEM, 5% FCS, 1% Pen/Strep (Penicillin/Streptomycin) and 0.5 mg/ml of the selection marker G418.
Cells at approximate 80% confluence were washed 2× with PBS and harvested with Versene (aqueous solution of the tetrasodium salt of ethylenediaminetetraacetic acid), centrifuged 5 min at 1000 rpm and the supernatant removed. The additional steps were all made on ice. The cell pellet was homogenised by the Ultrathurax for 20-30 sec. in 10 ml of Buffer 1 (20 mM Na-HEPES, 10 mM EDTA, pH=7.4), centrifuged 15 min at 20.000 rpm and the pellet resuspended in 10 ml of Buffer 2 (20 mM Na-HEPES, 0.1 mM EDTA, pH=7.4). […] The protein concentration was determined and the membranes stored at −80° C. until use. […]
Target sequence in this assay (P43220 24-463): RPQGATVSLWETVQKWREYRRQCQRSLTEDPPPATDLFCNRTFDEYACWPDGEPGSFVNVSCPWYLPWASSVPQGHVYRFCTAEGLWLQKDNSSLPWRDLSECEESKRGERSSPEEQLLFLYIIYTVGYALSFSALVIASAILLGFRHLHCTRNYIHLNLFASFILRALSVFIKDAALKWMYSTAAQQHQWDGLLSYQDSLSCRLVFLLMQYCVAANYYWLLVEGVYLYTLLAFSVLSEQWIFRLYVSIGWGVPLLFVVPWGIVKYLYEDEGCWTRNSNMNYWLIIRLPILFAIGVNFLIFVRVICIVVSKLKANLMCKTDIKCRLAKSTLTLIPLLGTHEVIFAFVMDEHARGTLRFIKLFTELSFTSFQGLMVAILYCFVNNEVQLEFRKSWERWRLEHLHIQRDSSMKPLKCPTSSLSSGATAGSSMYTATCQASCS

Test [2] concerns the target T1, human GLP-1 receptor. Put plainly: GLP-1 receptor binding: displacement of 125I-GLP-1 (SPA) at low and high albumin. More on the design: expressed in transfected cells; membranes. Particulars: 2.0% HSA; displacement of 125I-GLP-1, BHK tk-ts13 membranes. On the procedure: The binding affinity of the GLP-1 receptor agonist derivatives of Examples 1-12 to the human GLP-1 receptor was measured by way of their ability to displace of ^125I-GLP-1 from the receptor.
In order to test the binding of the derivatives to albumin, the assay was performed with a low concentration of albumin (0.005%—corresponding to the residual amount thereof in the tracer), as well as with a high concentration of albumin (2.0% added).
Species (in vitro): Hamster
Biological End Point: Receptor Binding
A stable transfected cell line and a high expressing clone were selected for screening. The cells were grown at 5% CO2 in DMEM, 10% FCS, 1% Pen/Strep (Penicillin/Streptomycin) and 1.0 mg/ml of the selection marker G418.
The cells (approx. 80% confluence) were washed twice in PBS and harvested with Versene (aqueous solution of the tetrasodium salt of ethylenediaminetetraacetic acid), following which they were separated by centrifugation at 1000 rpm for 5 min. The cells/cell pellet must be kept on ice to the extent possible in the subsequent steps. […] The resulting pellet was resuspended in Buffer 2, and the protein concentration was determined. […]
Test compounds, membranes, SPA-particles and [^125I]-GLP-1(7-36)NH2 were diluted in assay buffer. […] The plates were centrifuged (1500 rpm, 10 min) and counted in Topcounter. […]

Take `CC[C@H](C)[C@H](NC(=O)[C@H](Cc1ccccc1)NC(=O)[C@H](CCC(=O)O)NC(=O)[C@H](CCCCNC(=O)COCCOCCNC(=O)COCCOCCNC(=O)CC[C@H](NC(=O)CCCCCCCCCCCCCCCCC(=O)O)C(=O)O)NC(=O)[C@H](C)NC(=O)[C@H](C)NC(=O)[C@H](CCC(N)=O)NC(=O)CNC(=O)[C@H](CCC(=O)O)NC(=O)[C@H](CC(C)C)NC(=O)[C@H](Cc1ccc(O)cc1)NC(=O)[C@H](CO)NC(=O)[C@H](CO)NC(=O)[C@@H](NC(=O)[C@H](CC(=O)O)NC(=O)[C@H](CO)NC(=O)[C@@H](NC(=O)[C@H](Cc1ccccc1)NC(=O)[C@@H](NC(=O)CNC(=O)[C@H](CCC(=O)O)NC(=O)CCCC(=O)c1ccccc1)[C@@H](C)O)[C@@H](C)O)C(C)C)C(=O)N[C@@H](C)C(=O)N[C@@H](Cc1c[nH]c2ccccc12)C(=O)N[C@@H](CC(C)C)C(=O)N[C@H](C(=O)N[C@@H](CCCNC(=N)N)C(=O)NCC(=O)N[C@@H](CCCNC(=N)N)C(=O)NCC(=O)O)C(C)C` [Example 11, N^9-(5-oxo-5-phenylpentanoyl), N^ε26-[2-[2-[2-[[2-[2-[2-[[(4S)-4-carboxy-4-(17-carboxyheptadecanoylamino)butanoyl]amino]ethoxy]ethoxy]acetyl]amino]ethoxy]ethoxy]acetyl]-[Arg^34]-GLP-1-(9-37)-peptide]: the EC50 in test [1] was greater than 8 nM. In test [2], this molecule yielded an IC50 greater than 800 nM.
